Results taken from PMC11787520, “Structural basis of the bifunctionality of Marinobacter salinexigens ZYF650^T glucosylglycerol phosphorylase in glucosylglycerol catabolism” (The Journal of Biological Chemistry, 2024).

Key:
[1] = target: T1, MsGGP (Marinobacter salinexigens, UniProt A0A5B0VBK8, E231A); assay: ion exchange chromatography, activity relative to wild type; assay type: biochemical; settings: 20 mM GG, 20 mM potassium phosphate, pH 6.6, 45 °C
T1 construct: gene gtfA; full length, 480 residues, subunit 54,844 Da, N-terminal His6 tag (pET28b), E. coli BL21(DE3); six protomers in asymmetric unit

[2] = target: T2, MsGGP (Marinobacter salinexigens, UniProt A0A5B0VBK8, D289A); assay: as above; assay type: biochemical; settings: 20 mM GG, 20 mM potassium phosphate, pH 6.6, 45 °C
T2 construct: gene gtfA; full length, 480 residues, subunit 54,844 Da, N-terminal His6 tag (pET28b), E. coli BL21(DE3); six protomers in asymmetric unit

[3] = target: T3, MsGGP (Marinobacter salinexigens, UniProt A0A5B0VBK8, D190A); assay: as above; assay type: biochemical; settings: 20 mM GG, 20 mM potassium phosphate, pH 6.6, 45 °C
T3 construct: gene gtfA; full length, 480 residues, subunit 54,844 Da, N-terminal His6 tag (pET28b), E. coli BL21(DE3); six protomers in asymmetric unit

[4] = target: T4, MsGGP (Marinobacter salinexigens, UniProt A0A5B0VBK8); assay: X-ray crystal structure, […] Å; assay type: binding; settings: active site, together with glycerol
T4 construct: gene gtfA; full length, 480 residues, subunit 54,844 Da, N-terminal His6 tag (pET28b), E. coli BL21(DE3); six protomers in asymmetric unit

[5] = target: T4, MsGGP; assay: X-ray crystal structure, […] Å; assay type: binding; settings: active site of chains A and E; reaction intermediate

OCC(CO)O[C@H]1O[C@H](CO)[C@@H](O)[C@H](O)[C@H]1O [2-O-α-Glucosylglycerol]
enzyme activity relative to wildtype [1]: nearly complete loss of enzyme activity following the mutation of these residues to alanine
enzyme activity relative to wildtype [2]: nearly complete loss of enzyme activity following the mutation of these residues to alanine
enzyme activity relative to wildtype [3]: nearly complete loss of enzyme activity following the mutation of these residues to alanine

OC[C@H]1O[C@H](O)[C@H](O)[C@@H](O)[C@@H]1O [glucose]
X-ray crystal structure, 2.5 Å [4]: each protomer features an α-glucose and a glycerol molecule occupying the active site

O=P(O)(O)O[C@H]1O[C@H](CO)[C@@H](O)[C@H](O)[C@H]1O [α-D-glucose-1-phosphate]
X-ray crystal structure, 2.7 Å [5]: the structure of MsGGP in complex with αGlc1-P was successfully determined
